By IC50 is commonly meant the concentration that gives 50% inhibition.

The subject of assay [1] is cells recovered in the BALF. The assay can be described thus: Tobacco smoke (TS) model, lungs inflammatory cells recruitment. The conditions noted are these: 10 mg/kg twice daily p.o., TS-exposed mice. The class given is in vivo, mouse. Here is the method: The aim of this experiment is to evaluate the efficacy and potency of a test compound administered p.o., once or twice daily on days 6 to 11, vs reference compounds, on pulmonary inflammation induced by 11 days of TS-exposure in female C57BL/6J mice, by assessing the effect of a test compound on the tobacco smoke induced recruitment of inflammatory cells to the lungs.
The test compounds are formulated in PEG200/0.5% methylcellulose (25/75, v/v) and are given at a dose volume of 10 mL/kg. Roflumilast and Dexamethasone are included as positive […] control, respectively. Each treatment group consists of 10 mice.
A first group of mice is subjected to daily TS-exposure for 5 consecutive days and sacrificed on the day 6, 24 h after the final TS-exposure.
A second group is exposed to air for 5 consecutive days (sham exposure) and sacrificed on the day 6, 24 h after the final air-exposure.
Compound and reference-treated groups are subjected to daily TS-exposure for 11 consecutive days and sacrificed on the day 12, 24 h after the final TS-exposure. Mice are dosed p.o. on days 6 to 11, twice daily, 1 h prior to and 6 h after each TS-exposure, with either vehicle, or the test compound at 3, 5, 10 or 30 mg/kg. Another group is dosed p.o. on days 6 to 11, once daily, 1 h prior to each TS-exposure, with either vehicle, or the test compound at a selected dose, for example 10 mg/kg.
An additional group is dosed p.o., once daily, on days 6 to 11, with roflumilast at 5 mg/kg, 1 h prior to each TS-exposure. Dexamethasone is dosed p.o., twice daily, on days 6 to 11, at 0.3 mg/kg, 1 h prior to and 6 h after each TS-exposure.
For each mouse, a BAL is performed using 0.4 mL of PBS. […]
The lungs are dissected out and the left lobes are removed, snap-frozen and stored at −80° C. […] Cell data are presented as individual data points for each animal and the mean value calculated for each group. […]
Percentage inhibitions for the cell data are calculated using the formula below: […]

The target of assay [2] is T1, hENPP2 (UniProtKB/SwissProt Sequence ref Q13822) (Homo sapiens (Human), UniProt Q13822). The assay can be described thus: LPC hENPP2 assay (choline release, LPC as substrate). In kind it is biochemical. The procedure, abridged:
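Detection is coupled: choline oxidase produces peroxide, which HRP uses to form quinoneimine dye from TOOS and 4-aminoantipyrine, read at 555 nm. The reaction is stopped with 20 mM EGTA in the developer mix, then incubated 30 min at room temperature; inhibition lowers signal.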

Assay [3] has as its target T1, hENPP2. Briefly: FS3 hENPP2 assay (fluorogenic substrate FS-3). The class given is biochemical. The conditions noted are these: hENPP2, FS-3 as substrate. The procedure, abridged: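 Compound dilutions (1/5 steps, top concentration as added 20 μM) were preincubated 30 min at room temperature with hENPP2 (0.4 or 0.64 μg/mL final) in pH 8.0 Tris buffer containing NaCl, KCl, MgCl2, CaCl2 and 0.1% fatty-acid-free BSA. FS-3 (0.75 μM as added) was then hydrolysed for 30 min at 30 °C, and fluorescence was read at 485/520 nm.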

The test system of assay [4] is LPA 18:2. Briefly: Rat whole blood (plasma) LPA assay. The class given is biochemical. On the procedure:
(§1) Whole blood is collected from rats or mouse by exsanguinations on sodium heparin tube, then after centrifugation at 3000 rpm for 15 min at 4° C., plasma is stored at −80° C. Compounds are diluted in DMSO in concentration dependent manner then 0.5 μL are dispensed into 96-wells plate placed in ice. Plasma is defrosted on ice then 49.5 μL of plasma are added into the well containing 0.5 μL of compound (1% DMSO final). Plates are covered with a lid in polypropylene and incubated at +37° C., 5% CO2, for 2 h under gentle shaking (except controls which are stored at −20° C.).
(§2) At the end of the incubation, controls are defrosted in ice and transferred in the incubated plates for LC-MS/MS analysis with a non GLP-validated method. For the analysis, plasma proteins from a 10 μL incubated plates are precipitated with an excess of methanol containing the internal standard, LPA 17:0. After centrifugation, the corresponding supernatant is injected on a C18 column. Analytes are eluted out of the column under isocratic conditions. An API5500 QTRAP mass spectrometer (ABSciex™) is used for the detection of LPA 18:2. No calibration curve is prepared for LPA 18:2, however relative quantities are evaluated based on the peak area.

Assay [5] concerns LPA 18:2. The assay can be described thus: Mouse whole blood (plasma) LPA assay. The class given is biochemical. Here is the method: as §1, §2

Consider `CCc1nc2cnc(N3CCN(C(=O)CN4CC(O)C4)CC3)cn2c1N(C)c1nc(-c2ccc(F)cc2)c(C#N)s1` [Cpd 12, 2-((2-ethyl-6-(4-(2-(3-hydroxyazetidin-1-yl)acetoyl)piperazin-1-yl)imidazo[1,2-a]pyrazin-3-yl)(methyl)amino)-4-(4-fluorophenyl) thiazole-5-carbonitrile], for which the “number of cells recovered in the BALF (macrophage cells, epithelial cells, neutrophils)” value in assay [1] is given as “significantly inhibited”. Moreover, the IC50 at hENPP2 [2] is over 1000 nM; against hENPP2 [3], 0.01 to 25 nM; in the assay with LPA 18:2 [4], over 1000 nM.

Take `CCc1nc2cnc(C3=CCN(CC(=O)N4CC(O)C4)CC3)cn2c1N(C)c1nc(-c2ccc(F)cc2)c(C#N)s1` [Cpd 21, 2-((2-ethyl-6-(1-(2-(3-hydroxyazetidin-1-yl)-2-oxoethyl)-1,2,3,6-tetrahydropyridin-4-yl)imidazo[1,2-a]pyrazin-3-yl)(methyl)amino)-4-(4-fluorophenyl) thiazole-5-carbonitrile]: the figures for the half-maximal inhibitory concentration (IC50) in the assay on LPA 18:2 [5], at hENPP2 [2] and against hENPP2 [3] were over 1000 nM, 100 to 500 nM and 0.01 to 25 nM, respectively.

Source of the values: US9796719B2, “Compounds and pharmaceutical compositions thereof for the treatment of inflammatory disorders” (GALAPAGOS NV, priority 2013, dated 2017).
